The values that follow come from ChEMBL document CHEMBL1201862, “PubChem BioAssay data set” (2004).

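Values below derive from 48-hour exposures of cells grown in 96-well plates, with endpoints linearly interpolated between the two concentrations bracketing the appropriate inhibition level. At the GI50, growth is halved.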 Active and inactive are the calls of the source. Rule as the data show it: active = GI50 up to about 1.1 µM and inactive = higher. A value given as a limit tells only on which side of the number the result lay.

Holding throughout (test): NCI anticancer screen, dose series, 48 h
Test [1] concerns 786-0.
In test [2] the test system is ACHN.
The subject of test [3] is BT-549.
The subject of test [4] is CCRF-CEM.
Test [5] relates to HCT-15.
The subject of test [6] is HOP-62.
The subject of test [7] is Hs-578T.
For test [8], the system named is KM12.
Test [9] relates to M14.
Test [10] deals with MCF7.
In test [11] the test system is MOLT-4.
The subject of test [12] is NCI-H23.
Test [13] relates to NCI-H460.
The subject of test [14] is NCI/ADR-RES.
The subject of test [15] is SF-295.
In test [16] the test system is SK-MEL-2.
Test [17] concerns SK-MEL-5.
For test [18], the system named is SN12C.
The subject of test [19] is DU-145.
Test [20] relates to T47D.

Regarding `Cc1cc(=O)oc2c(OS(C)(=O)=O)c(OS(C)(=O)=O)ccc12`, the GI50 in test [1] is > 100 µM (inactive); in test [2], > 100 µM (inactive); in test [3], > 100 µM (inactive); in [4], > 100 µM (inactive); in [5], greater than 100 µM; in [6] it was > 100 µM (inactive). Besides, the GI50 in test [7], in test [8], in test [9], in test [10], in [11] and in [12] was > 100 µM (inactive) in each case. For the same compound, the GI50 in test [13], in [14], in test [15], in [16], in test [17] and in [18] was > 100 µM (inactive) in each case.

For the compound `Cn1c(=O)oc2nc(-c3ccccc3)cc(C(F)(F)F)c21`, the GI50 in test [1] is > 100 µM (inactive); in test [2], > 100 µM (inactive); in test [3], > 100 µM (inactive); in [19] it was > 100 µM (inactive); in test [5], greater than 100 µM; in [6], > 100 µM (inactive). The GI50 in [8] is 9.93 µM (inactive); in test [9], > 100 µM (inactive); in test [10], 37.8 µM (inactive); in test [11], 14.3 µM (inactive); in test [12], > 100 µM (inactive); in test [13], > 100 µM (inactive). Also, the GI50 in test [14] is 58.3 µM (inactive); in test [15], > 100 µM (inactive); in test [16], > 100 µM (inactive); in test [17], 50.7 µM (inactive); in test [18], 5.71 µM (inactive); in test [20] it was > 100 µM (inactive).

In the case of `CCOC(=O)C1C(C)C2(C#N)C(=N)OC1(C)C2(C#N)C#N` (stereo not given), the GI50 in test [1] is 66.7 µM (inactive); in [2], 38.6 µM (inactive); in test [19] it was 78.5 µM (inactive); in test [5], 12.5 µM; in test [7], 40.9 µM (inactive); in test [8] it was > 100 µM (inactive). The GI50 in [9] was > 100 µM (inactive); in test [10], 55.2 µM (inactive); in test [12] it was 60 µM (inactive); in test [14], > 100 µM (inactive); in test [15], > 100 µM (inactive); in [16], 58.2 µM (inactive). Also, the values for the GI50 in [17], in test [18] and in test [20] were 41.4 µM (inactive), 64.9 µM (inactive) and 48.1 µM (inactive), respectively.

For the compound `COc1cc(-c2cc(OC)c(OC)c3ccc(Br)cc23)c2cc(Br)ccc2c1OC`, the GI50 in test [1] is 19.8 µM (inactive); in [2], 22.1 µM (inactive); in [19] it was 29 µM (inactive); in test [5] it was 63.2 µM; in test [6] it was 21.6 µM (inactive); in test [7] it was 38.8 µM (inactive). Further, the GI50 in test [9] was 23.2 µM (inactive); in [10], 47.2 µM (inactive); in [11] it was 45.7 µM (inactive); in test [12] it was 22.4 µM (inactive); in [13], 41.7 µM (inactive); in [14], 33.7 µM (inactive). For the same compound, the GI50 is 18.6 µM (inactive) in [15]; 25.4 µM (inactive) in [16]; 32.3 µM (inactive) in [17]; 26 µM (inactive) in test [18]; 31.6 µM (inactive) in test [20].

For `CC(CO)C1C[C@H](O)[C@@]2(C)CC(=O)C=C(CO)[C@@H]2C1` (stereo not given in full), the GI50 was > 100 µM (inactive) in test [1]; > 100 µM (inactive) in [2]; > 100 µM (inactive) in test [3]; > 100 µM (inactive) in [19]; greater than 100 µM in test [5]; > 100 µM (inactive) in [6]. The GI50 in [8], in test [9], in test [10], in test [11], in test [12] and in test [13] was > 100 µM (inactive) in each case. Further, the GI50 in test [14], in test [15], in test [16], in test [17], in [18] and in [20] was > 100 µM (inactive) each time.

`CN(C)N1C(=C(C#N)C#N)C(c2ccccc2)CC1C#N` (stereo not given): the GI50 in test [1] was > 100 µM (inactive); in [2], > 100 µM (inactive); in [4] it was > 100 µM (inactive); in test [19], > 100 µM (inactive); in test [5], greater than 100 µM; in test [6], > 100 µM (inactive). The GI50 in test [7], in test [8], in test [9], in test [10], in [11] and in [12] was > 100 µM (inactive) each time. Moreover, the GI50 in [14], in [15], in [16], in test [17], in test [18] and in [20] was > 100 µM (inactive) throughout.

On to `C=C1C(=O)O[C@H]2/C=C(/C)C3=CC(=O)[C@@](C)(C[C@@H](OC(=O)/C(C)=C\C)C12)O3` (stereo not given in full), for which the GI50 in test [1] is 0.426 µM (active); in [2] it was 0.232 µM (active); in test [4], 0.0953 µM (active); in test [19], 2.58 µM (inactive); in test [5], 0.216 µM; in [6], 9.4 µM (inactive). Further, the GI50 in test [7] is 6.05 µM (inactive); in test [8] it was 2.86 µM (inactive); in test [9] it was 1.85 µM (inactive); in [10] it was 0.36 µM (active); in test [11], 1.87 µM (inactive); in test [12], 2.42 µM (inactive). Further, the GI50 in [13] was 2.35 µM (inactive); in test [15], 12 µM (inactive); in test [16], 3.02 µM (inactive); in test [17], 1.03 µM (active); in test [18], 1.36 µM (inactive); in [20] it was 0.811 µM (active).

For `COc1ccc(-n2c(=O)c3nc[nH]c3n(-c3ccc(OC)cc3)c2=S)cc1`, the GI50 is > 100 µM (inactive) in test [1]; > 100 µM (inactive) in test [2]; > 100 µM (inactive) in test [3]; > 100 µM (inactive) in [4]; > 100 µM (inactive) in test [19]; greater than 100 µM in [5]. Also, the GI50 in test [6], in test [8], in test [9], in test [10], in test [11] and in test [12] was > 100 µM (inactive) in each case. The GI50 in test [13], in test [14], in test [15], in [16], in test [17] and in test [18] was > 100 µM (inactive) each time. Besides, the GI50 in test [20] is > 100 µM (inactive).

As for `NC(Cc1ccc(OCc2ccccc2)cn1)C(=O)OCc1ccccc1` (stereo not given), the GI50 was > 100 µM (inactive) in test [1]; > 100 µM (inactive) in test [2]; > 100 µM (inactive) in [3]; > 100 µM (inactive) in test [4]; > 100 µM (inactive) in [19]; greater than 100 µM in [5]. Besides, the GI50 in test [6], in [7], in test [8], in test [10], in [12] and in test [13] was > 100 µM (inactive) each time. The GI50 in test [14], in test [15], in [17] and in test [18] was > 100 µM (inactive) throughout.

Consider `O=C1c2ccccc2C(=O)N1NC1=NCCN1`, for which the GI50 was > 100 µM (inactive) in test [1]; > 100 µM (inactive) in test [2]; > 100 µM (inactive) in [3]; > 100 µM (inactive) in [4]; > 100 µM (inactive) in test [19]; greater than 100 µM in test [5]. Besides, the GI50 in test [6], in test [8], in test [9], in test [10], in test [11] and in test [12] was > 100 µM (inactive) each time. Besides, the GI50 in test [13], in test [14], in [15], in test [16], in test [17] and in [18] was > 100 µM (inactive) in each case. Further, the GI50 in test [20] is > 100 µM (inactive).

For the compound `Cc1c(O)c(OC2OC(CO)C(O)C(O)C2O)cc2c1CC[C@@H]1C2(C)C(=O)C[C@]2(C)[C@@H]([C@@](C)(O)C(=O)CCC(C)(C)O)[C@H](O)C[C@@]12C` (stereo not given in full), the GI50 in test [1] was > 100 µM (inactive); in test [2] it was > 100 µM (inactive); in test [3], > 100 µM (inactive); in test [4] it was > 100 µM (inactive); in [19], > 100 µM (inactive); in test [5], greater than 100 µM. The GI50 in test [6], in test [8], in test [9], in [10], in [11] and in [12] was > 100 µM (inactive) throughout. For the same compound, the GI50 in test [13], in test [14], in test [15], in test [16], in test [17] and in [18] was > 100 µM (inactive) throughout. Besides, the GI50 in [20] was > 100 µM (inactive).
